Source: PubChem BioAssay (NCI)
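Test compounds were applied to cells in 96-well plates for 48 hours at 5 doses. Abbreviation: GI50, concentration required for 50% inhibition of growth. TGI denotes the concentration required for complete inhibition of growth.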

Assays:
Test in all cases: NCI-60 cell line screen, 48 h
[1] = tested on: A498 renal
[2] = tested on: COLO 205 colon
[3] = tested on: HT29 colon
[4] = tested on: IGROV1 ovarian
[5] = tested on: K-562 leukemia
[6] = tested on: NCI-H460 lung
[7] = tested on: RPMI-8226 leukemia
[8] = tested on: SF-539 CNS
[9] = tested on: SW-620 colon
[10] = tested on: MCF7 breast

| SMILES | TGI [1] | TGI [2] | TGI [3] | TGI [4] | TGI [5] | TGI [6] | TGI [7] | TGI [8] | TGI [9] | GI50 [1] | GI50 [2] | GI50 [4] | GI50 [5] | GI50 [10] | TGI [10] | GI50 [6] | GI50 [7] | GI50 [9] | GI50 [3] | GI50 [8] |
| --- | --- | --- | --- | --- | --- | --- | --- | --- | --- | --- | --- | --- | --- | --- | --- | --- | --- | --- | --- | --- |
| Cc1cccc(C)c1NC(=O)CCc1nnc2s/c(=C\c3ccc(Cl)cc3)c(=O)n12 | > 100 µM | > 100 µM | > 100 µM | > 100 µM | > 100 µM | > 100 µM | > 100 µM | > 100 µM | 40.2 µM | – | – | – | – | – | – | – | – | – | – | – |
| C[C@]12CC[C@H](OCCC#N)CC1=CC[C@@H]1C2CC[C@]2(C)/C(=N/OCCC#N)CCC12 (stereo not given in full) | > 100 µM | > 100 µM | – | > 100 µM | > 100 µM | > 100 µM | > 100 µM | > 100 µM | > 100 µM | – | – | – | – | – | – | – | – | – | – | – |
| CN(C)CC/C(=N\Nc1ccccc1)c1ccccc1 | – | 33.5 µM | 10 µM | > 100 µM | 7.54 µM | – | > 100 µM | 32.6 µM | – | – | – | – | – | – | – | – | – | – | – | – |
| CCOC(=O)NC(=O)c1cn(CCCOC(=O)CCCCCCCCCCC(=O)OCCCn2cc(C(=O)NC(=O)OCC)c(=O)n(C)c2=O)c(=O)n(C)c1=O | > 100 µM | > 100 µM | > 100 µM | > 100 µM | > 100 µM | > 100 µM | > 100 µM | > 100 µM | > 100 µM | – | – | – | – | – | – | – | – | – | – | – |
| O=C1c2ccccc2C2(O)NC(=S)N(c3ccccc3)C12O (stereo not given) | – | > 100 µM | > 100 µM | > 100 µM | > 100 µM | > 100 µM | > 100 µM | > 100 µM | > 100 µM | – | – | – | – | – | – | – | – | – | – | – |
| CC(C)C1CCC/C=C/C=C/C=C/C=C/C(OC2OC(C)C(O)C(N)C2O)CC2OC(O)(CC(O)CC(O)C(O)CCC(=O)O1)CC(O)C2C(=O)O (stereo not given) | > 52.5 µM | > 52.5 µM | > 52.5 µM | > 52.5 µM | > 52.5 µM | – | > 52.5 µM | > 52.5 µM | > 52.5 µM | – | – | – | – | – | – | – | – | – | – | – |
| O=C(O)CC12C3C4C5C3C1C5C42 (stereo not given) | > 100 µM | > 100 µM | > 100 µM | > 100 µM | > 100 µM | > 100 µM | > 100 µM | > 100 µM | > 100 µM | – | – | – | – | – | – | – | – | – | – | – |
| CC(C)CNc1nc(-c2ccccc2)nc2ccccc12 | 29.5 µM | 40.3 µM | – | > 100 µM | 30.8 µM | 41.1 µM | 20.3 µM | – | – | 15.1 µM | 14.8 µM | 27.4 µM | 11100 nM | 18.6 µM | 44.4 µM | 17.2 µM | 4.31 µM | – | – | – |
| COC(=O)C12CC(c3ccccc31)C1C(=O)OC(=O)C12 (stereo not given) | – | > 100 µM | > 100 µM | > 100 µM | > 100 µM | > 100 µM | > 100 µM | > 100 µM | > 100 µM | – | – | – | – | – | – | – | – | – | – | – |
| C=C(C)CN(CC#N)CC(=C)C | > 100 µM | > 100 µM | > 100 µM | > 100 µM | > 100 µM | – | > 100 µM | – | > 100 µM | – | – | – | – | – | > 100 µM | – | – | – | – | – |
| Cc1ccc(NC(=O)CCC/C(CC(=O)c2ccc(Br)cc2)=N/NC(=O)CC#N)cc1 | – | > 100 µM | > 100 µM | > 100 µM | – | > 100 µM | > 100 µM | – | > 100 µM | – | – | – | – | – | – | – | – | – | – | – |
| CCn1c(O)c(C=N)c(=O)n(CC)c1=O | > 100 µM | > 100 µM | > 100 µM | > 100 µM | > 100 µM | > 100 µM | – | > 100 µM | > 100 µM | – | – | – | – | – | – | – | – | – | – | – |
| CCCCCCCCCCC(O)C1CCC(C(O)CCC(O)C2CCC(CCCCCCC[C@H](O)CC3=C[C@@H](C)OC3=O)O2)O1 (stereo not given in full) | > 82 µM | > 100 µM | > 100 µM | > 100 µM | > 100 µM | > 100 µM | > 100 µM | > 100 µM | > 100 µM | – | – | – | 2180 nM | – | – | – | 6.36 µM | 9.3 µM | – | – |
| CCc1nc(N)nc(C(=O)NCCNC(=O)c2nc(N)nc(CC)c2C)c1C | > 100 µM | – | > 100 µM | > 100 µM | > 100 µM | > 100 µM | > 100 µM | > 100 µM | > 100 µM | – | – | – | – | – | – | – | – | – | – | – |
| COc1cc(C(=O)C/C(CCC(=O)Nc2ccc(Cl)cc2C)=N/NC(=O)C(N)=O)ccc1O | > 100 µM | > 100 µM | > 100 µM | > 100 µM | > 100 µM | > 100 µM | > 100 µM | > 100 µM | > 100 µM | – | – | – | – | – | – | – | – | – | – | – |
| Cc1nc2cc(N)c(F)cc2[nH]1 | > 100 µM | > 100 µM | > 100 µM | > 100 µM | > 100 µM | > 100 µM | – | > 100 µM | > 100 µM | – | – | – | – | – | – | – | – | – | – | – |
| COC1OC(C)C(O)CC1OS(=O)(=O)c1ccc(C)cc1 (stereo not given) | > 100 µM | > 100 µM | > 100 µM | > 100 µM | > 100 µM | > 100 µM | > 100 µM | > 100 µM | > 100 µM | – | – | – | – | – | – | – | – | – | – | – |
| CCCCc1ccc(-n2c3nc(=O)n(C)c(=O)c-3nc3ccccc32)cc1 | 32.7 µM | 13 µM | 11.8 µM | 33.7 µM | 33.6 µM | 16.6 µM | 57 µM | 27.1 µM | 19.8 µM | – | – | – | – | – | – | – | – | – | – | – |
| COc1cccc(-c2nc3sccn3c2-c2ccnc(NCCNS(=O)(=O)c3ccccc3)c2)c1 | – | 18.2 µM | 34.3 µM | > 100 µM | > 100 µM | > 100 µM | 3.65 µM | > 100 µM | > 100 µM | – | 1.87 µM | 2.2 µM | 1460 nM | 3.14 µM | > 100 µM | 3.47 µM | 1.05 µM | 4.3 µM | 2370 nM | 4.98 µM |
| Nc1ncn(C2C=C(CO)C(O)C2O)c(=O)n1 (stereo not given) | > 100 µM | 74.2 µM | – | > 100 µM | > 100 µM | > 100 µM | > 100 µM | > 100 µM | > 100 µM | – | – | – | – | – | – | – | – | – | – | – |
| Nc1nc(=S)[nH]c(C(=O)Nc2ccc(Cl)c(Cl)c2)c1-c1ccc(Cl)cc1 | > 100 µM | > 100 µM | > 100 µM | > 100 µM | > 100 µM | > 100 µM | > 100 µM | > 100 µM | > 100 µM | – | – | – | – | – | – | – | – | – | – | – |
| C1CCN(C2OC3C(COC3N3CCCCC3)OC2OC2CCO[C@@H]2N2CCCCC2)CC1 (stereo not given in full) | > 100 µM | > 100 µM | > 100 µM | > 100 µM | > 100 µM | > 100 µM | > 100 µM | 46.8 µM | > 100 µM | – | – | – | – | – | – | – | – | – | – | – |
